The target in one data set is Histone deacetylase 3 (Homo sapiens, UniProt O15379). The data set can be described thus: Inhibition of human HDAC3 using Boc-Lys (acetyl)-AMC as substrate incubated for 1 hr followed by substrate addition and further incubated for 2 hrs by fluorescence assay.
Data set [1] addresses T1, Aminopeptidase N (Sus scrofa, UniProt P15145).
T1 sequence (P15145 whole entry): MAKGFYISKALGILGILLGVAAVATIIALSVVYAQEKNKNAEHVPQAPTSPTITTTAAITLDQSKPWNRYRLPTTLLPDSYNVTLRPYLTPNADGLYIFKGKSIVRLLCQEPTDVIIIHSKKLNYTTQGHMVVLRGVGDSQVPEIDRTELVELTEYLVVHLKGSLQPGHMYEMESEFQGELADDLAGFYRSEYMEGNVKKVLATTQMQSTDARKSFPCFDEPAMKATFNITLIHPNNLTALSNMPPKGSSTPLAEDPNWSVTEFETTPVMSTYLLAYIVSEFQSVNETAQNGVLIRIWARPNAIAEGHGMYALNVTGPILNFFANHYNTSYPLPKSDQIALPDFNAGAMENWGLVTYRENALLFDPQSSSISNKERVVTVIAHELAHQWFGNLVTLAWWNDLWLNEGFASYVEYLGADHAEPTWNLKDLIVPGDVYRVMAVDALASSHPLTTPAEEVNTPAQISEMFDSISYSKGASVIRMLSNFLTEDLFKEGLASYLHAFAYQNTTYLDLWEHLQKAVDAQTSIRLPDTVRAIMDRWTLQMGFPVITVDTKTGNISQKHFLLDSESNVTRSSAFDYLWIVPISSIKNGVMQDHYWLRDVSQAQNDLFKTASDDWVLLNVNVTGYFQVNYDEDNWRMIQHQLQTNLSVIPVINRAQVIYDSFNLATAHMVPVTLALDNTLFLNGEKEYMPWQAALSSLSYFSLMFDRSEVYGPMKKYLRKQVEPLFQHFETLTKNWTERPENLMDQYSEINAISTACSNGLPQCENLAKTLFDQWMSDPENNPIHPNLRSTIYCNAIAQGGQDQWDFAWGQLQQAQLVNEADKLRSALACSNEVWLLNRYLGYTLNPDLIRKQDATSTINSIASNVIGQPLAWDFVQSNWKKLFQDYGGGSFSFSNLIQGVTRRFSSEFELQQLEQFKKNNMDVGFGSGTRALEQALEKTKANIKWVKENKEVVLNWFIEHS
The data set can be described thus: Inhibition of porcine kidney CD13 using L-leucine-p-nitroanilide as substrate incubated for 30 mins by microplate reader analysis.

In a further data set the target is Histone deacetylase 1 (Homo sapiens, UniProt Q13547). The data set can be described thus: Inhibition of human HDAC1 using Boc-Lys (acetyl)-AMC as substrate incubated for 1 hr followed by substrate addition and further incubated for 2 hrs by fluorescence assay.
Chain of Histone deacetylase 1 (Q13547 whole entry): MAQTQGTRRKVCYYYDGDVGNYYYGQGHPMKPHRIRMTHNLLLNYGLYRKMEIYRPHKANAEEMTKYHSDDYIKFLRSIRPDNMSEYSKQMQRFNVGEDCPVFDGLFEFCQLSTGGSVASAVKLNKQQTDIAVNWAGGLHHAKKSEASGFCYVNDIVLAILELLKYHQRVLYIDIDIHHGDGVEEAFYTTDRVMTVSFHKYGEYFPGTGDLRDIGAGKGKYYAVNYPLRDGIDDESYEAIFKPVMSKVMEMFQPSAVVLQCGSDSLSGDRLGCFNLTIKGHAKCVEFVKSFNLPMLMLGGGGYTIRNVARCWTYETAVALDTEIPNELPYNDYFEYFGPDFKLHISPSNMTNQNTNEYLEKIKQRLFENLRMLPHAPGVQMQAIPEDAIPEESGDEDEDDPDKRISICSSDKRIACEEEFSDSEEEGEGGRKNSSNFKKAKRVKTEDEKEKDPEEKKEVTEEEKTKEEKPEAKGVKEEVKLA
Data set [2] relates to MV4-11. The data set can be described thus: Antiproliferative activity against human MV4-11 cells incubated for 48 hrs by resazurin based microplate reader analysis. To be noted: MV4-11, 48 h. (In general: Resazurin is reduced to fluorescent resorufin, in cell work by metabolically active cells.)
A further data set deals with Histone deacetylase 2 (Homo sapiens, UniProt Q92769). The data set can be described thus: Inhibition of human HDAC2 using Boc-Lys (acetyl)-AMC as substrate incubated for 1 hr followed by substrate addition and further incubated for 2 hrs by fluorescence assay.
Chain of Histone deacetylase 2 (Q92769 whole entry): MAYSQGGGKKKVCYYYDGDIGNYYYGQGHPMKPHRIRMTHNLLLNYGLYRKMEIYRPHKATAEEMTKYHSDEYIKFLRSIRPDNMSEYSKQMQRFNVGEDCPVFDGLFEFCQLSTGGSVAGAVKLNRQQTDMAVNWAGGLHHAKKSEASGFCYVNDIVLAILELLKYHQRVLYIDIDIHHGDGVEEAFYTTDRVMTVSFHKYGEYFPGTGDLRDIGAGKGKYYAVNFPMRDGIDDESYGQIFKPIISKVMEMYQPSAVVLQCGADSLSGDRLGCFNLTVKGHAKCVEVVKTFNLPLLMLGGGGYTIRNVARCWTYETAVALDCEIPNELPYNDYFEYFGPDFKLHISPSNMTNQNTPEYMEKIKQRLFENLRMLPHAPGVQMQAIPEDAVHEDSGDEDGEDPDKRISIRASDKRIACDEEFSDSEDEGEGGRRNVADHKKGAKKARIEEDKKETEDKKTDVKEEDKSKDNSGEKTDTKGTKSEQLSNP
A further data set concerns the target T2, Histone deacetylase 8 (Homo sapiens, UniProt Q9BY41).
T2 sequence (Q9BY41 whole entry): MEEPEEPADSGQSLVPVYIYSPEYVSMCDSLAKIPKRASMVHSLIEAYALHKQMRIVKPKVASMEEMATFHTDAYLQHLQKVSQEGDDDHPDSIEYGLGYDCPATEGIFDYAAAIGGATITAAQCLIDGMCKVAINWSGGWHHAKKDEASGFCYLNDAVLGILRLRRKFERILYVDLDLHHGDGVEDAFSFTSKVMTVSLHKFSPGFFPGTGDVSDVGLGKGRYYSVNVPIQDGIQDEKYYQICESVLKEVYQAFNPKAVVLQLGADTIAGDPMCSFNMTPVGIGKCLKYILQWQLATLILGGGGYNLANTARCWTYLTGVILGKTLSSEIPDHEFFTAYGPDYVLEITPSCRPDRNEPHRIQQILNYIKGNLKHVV
The data set can be described thus: Inhibition of human HDAC8 using Boc-Lys (tri-fluoroacetyl)-AMC as substrate incubated for 1 hr followed by substrate addition and further incubated for 2 hrs by fluorescence assay.

For data set [3], the target named is T3, Protein deacetylase HDAC6 (Homo sapiens, UniProt Q9UBN7).
T3 sequence (Q9UBN7 whole entry): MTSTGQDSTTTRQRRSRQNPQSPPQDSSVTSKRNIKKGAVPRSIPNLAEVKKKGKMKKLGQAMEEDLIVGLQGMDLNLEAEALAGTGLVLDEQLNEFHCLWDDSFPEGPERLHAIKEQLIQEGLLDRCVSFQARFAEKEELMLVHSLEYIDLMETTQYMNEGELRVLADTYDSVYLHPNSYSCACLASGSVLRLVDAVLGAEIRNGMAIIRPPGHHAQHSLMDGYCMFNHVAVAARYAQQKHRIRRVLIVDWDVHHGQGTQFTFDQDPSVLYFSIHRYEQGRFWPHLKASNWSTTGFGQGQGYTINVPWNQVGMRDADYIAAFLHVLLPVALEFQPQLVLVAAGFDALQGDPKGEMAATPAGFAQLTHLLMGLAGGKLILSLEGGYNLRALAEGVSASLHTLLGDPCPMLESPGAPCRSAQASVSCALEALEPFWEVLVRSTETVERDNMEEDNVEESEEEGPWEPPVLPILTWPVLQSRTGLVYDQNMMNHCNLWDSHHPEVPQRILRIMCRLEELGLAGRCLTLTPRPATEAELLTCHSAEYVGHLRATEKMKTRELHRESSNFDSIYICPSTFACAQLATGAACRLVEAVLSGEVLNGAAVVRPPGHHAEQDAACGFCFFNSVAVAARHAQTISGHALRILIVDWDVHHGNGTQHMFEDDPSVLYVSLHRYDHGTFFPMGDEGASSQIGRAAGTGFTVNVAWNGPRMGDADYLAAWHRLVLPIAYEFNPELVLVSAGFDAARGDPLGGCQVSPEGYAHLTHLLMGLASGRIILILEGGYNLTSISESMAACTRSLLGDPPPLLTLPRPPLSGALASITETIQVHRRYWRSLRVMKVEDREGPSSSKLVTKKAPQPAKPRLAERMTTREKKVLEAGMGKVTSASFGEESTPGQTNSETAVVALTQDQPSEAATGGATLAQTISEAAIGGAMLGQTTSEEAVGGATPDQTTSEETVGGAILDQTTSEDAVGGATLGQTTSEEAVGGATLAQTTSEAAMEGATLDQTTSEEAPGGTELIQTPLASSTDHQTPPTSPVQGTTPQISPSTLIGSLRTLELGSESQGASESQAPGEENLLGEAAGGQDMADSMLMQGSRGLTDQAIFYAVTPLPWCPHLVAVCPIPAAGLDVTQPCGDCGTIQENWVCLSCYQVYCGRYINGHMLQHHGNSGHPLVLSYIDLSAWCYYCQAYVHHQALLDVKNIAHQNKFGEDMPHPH
The data set can be described thus: Inhibition of human HDAC6 using Boc-Lys (acetyl)-AMC as substrate incubated for 1 hr followed by substrate addition and further incubated for 2 hrs by fluorescence assay.

Data set [4] deals with MV4-11. The data set can be described thus: Induction of apoptosis in human MV4-11 cells assessed as apoptotic rate at 2 uM incubated for 24 hrs by Annexin V-FITC staining based flow cytometry (reference value: 24.09 %). The data set is classed as functional. (Flow cytometry measures light scatter and fluorescence of single cells or particles in a stream.)
Another data set has as its system BXPC-3. Kind of data set: Antiproliferative activity against human BXPC-3 cells incubated for 48 hrs by resazurin based microplate reader analysis. To be noted: BXPC-3, 48 h.
Data set [5] relates to A549. The data set can be described thus: Antiproliferative activity against human A549 cells incubated for 48 hrs by resazurin based microplate reader analysis. Particulars: A549, 48 h.
A further data set relates to K562. Kind of data set: Antiproliferative activity against human K562 cells incubated for 48 hrs by resazurin based microplate reader analysis. To be noted: K562, 48 h.
Another data set concerns HL-60. Kind of data set: Antiproliferative activity against human HL-60 cells incubated for 48 hrs by resazurin based microplate reader analysis. To be noted: HL-60, 48 h.
The target of data set [6] is Aminopeptidase N (Homo sapiens, UniProt P15144). The data set can be described thus: Inhibition of human CD13 using L-leucine-p-nitroanilide as substrate incubated for 30 mins by microplate reader analysis.
Chain of Aminopeptidase N (Homo sapiens, UniProt P15144) (P15144 whole entry): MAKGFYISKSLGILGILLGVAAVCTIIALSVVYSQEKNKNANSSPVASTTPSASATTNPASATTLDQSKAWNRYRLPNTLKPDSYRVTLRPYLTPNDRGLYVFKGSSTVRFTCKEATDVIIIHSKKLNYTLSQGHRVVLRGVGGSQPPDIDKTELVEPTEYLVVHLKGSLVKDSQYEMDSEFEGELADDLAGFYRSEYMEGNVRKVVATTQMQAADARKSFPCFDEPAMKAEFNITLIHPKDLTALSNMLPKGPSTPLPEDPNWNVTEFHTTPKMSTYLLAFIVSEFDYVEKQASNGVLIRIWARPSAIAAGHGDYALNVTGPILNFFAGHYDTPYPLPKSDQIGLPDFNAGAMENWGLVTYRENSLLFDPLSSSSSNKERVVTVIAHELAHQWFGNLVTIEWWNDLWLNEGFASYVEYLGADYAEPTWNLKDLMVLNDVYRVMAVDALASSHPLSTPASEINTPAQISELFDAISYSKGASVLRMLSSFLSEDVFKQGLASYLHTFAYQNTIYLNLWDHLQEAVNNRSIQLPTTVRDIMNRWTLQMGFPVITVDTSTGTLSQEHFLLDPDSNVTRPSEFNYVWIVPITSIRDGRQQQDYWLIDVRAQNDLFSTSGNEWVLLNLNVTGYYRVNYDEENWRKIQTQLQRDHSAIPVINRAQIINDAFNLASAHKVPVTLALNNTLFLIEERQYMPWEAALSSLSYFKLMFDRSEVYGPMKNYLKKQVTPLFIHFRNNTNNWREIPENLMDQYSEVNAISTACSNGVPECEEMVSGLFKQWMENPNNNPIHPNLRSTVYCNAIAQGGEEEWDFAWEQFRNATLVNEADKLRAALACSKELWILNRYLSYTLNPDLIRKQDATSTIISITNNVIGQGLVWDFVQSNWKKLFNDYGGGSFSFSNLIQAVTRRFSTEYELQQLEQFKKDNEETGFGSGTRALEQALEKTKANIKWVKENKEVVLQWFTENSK
Data set [7] concerns A549. Kind of data set: Induction of apoptosis in human A549 cells assessed as apoptotic rate at 20 uM incubated for 24 hrs by Annexin V-FITC staining based flow cytometry (reference value: 8.02 %). The data set is classed as functional.
A further data set relates to JeKo-1. Kind of data set: Antiproliferative activity against human JeKo-1 cells incubated for 48 hrs by resazurin based microplate reader analysis. Particulars: JeKo-1, 48 h.
The nature of data set [8]: Cytotoxicity against human HL7702 cells incubated for 48 hrs by resazurin based microplate reader analysis. Particulars: HL7702 (L02) cells.

Each structure is given as a SMILES string.

As usually defined, the IC50 is the concentration that gives 50% inhibition. Low readings indicate greater potency, high ones weaker potency.

Chain of Histone deacetylase 3 (O15379 whole entry): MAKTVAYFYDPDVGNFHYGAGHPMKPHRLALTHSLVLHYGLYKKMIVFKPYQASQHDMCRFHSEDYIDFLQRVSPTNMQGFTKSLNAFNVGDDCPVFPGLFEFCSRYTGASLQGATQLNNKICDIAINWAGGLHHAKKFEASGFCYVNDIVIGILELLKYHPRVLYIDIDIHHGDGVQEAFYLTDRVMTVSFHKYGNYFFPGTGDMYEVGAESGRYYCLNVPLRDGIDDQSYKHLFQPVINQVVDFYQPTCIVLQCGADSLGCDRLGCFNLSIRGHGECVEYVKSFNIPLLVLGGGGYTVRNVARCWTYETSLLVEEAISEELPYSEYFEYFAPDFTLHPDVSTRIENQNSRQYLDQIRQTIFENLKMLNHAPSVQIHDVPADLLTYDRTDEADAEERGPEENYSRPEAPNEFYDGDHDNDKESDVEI

`CCCNNC(=O)c1ccc(CNC(=O)[C@H](CC(C)C)NC(=O)Nc2c(C)cccc2C)cc1`: the concentration for half-maximal inhibition (IC50) on Histone deacetylase 3 is 290 nM; against Aminopeptidase N [1], above 20000 nM.

As to `O=C(CCCCCCC(=O)Nc1ccccc1)NO` [VORINOSTAT], at Aminopeptidase N [1], the half-maximal inhibitory concentration (IC50) was above 20000 nM.

`CCCNNC(=O)[C@H](CC(C)C)NC(=O)[C@@H](O)[C@H](N)Cc1ccccc1`: the IC50 against Histone deacetylase 1 was above 10000 nM; in the data set on MV4-11 [2], above 20000 nM; at Histone deacetylase 3 it was above 10000 nM; against Histone deacetylase 2 it was above 10000 nM; at Aminopeptidase N [1] it was 18200 nM.

As for `CC(C)C[C@H](NC(=O)[C@@H](O)[C@H](N)Cc1ccccc1)C(=O)O` [UBENIMEX], the IC50 is above 10000 nM against Histone deacetylase 1, above 20000 nM in the data set with MV4-11 [2], above 10000 nM against Histone deacetylase 3 and above 10000 nM against Histone deacetylase 2.

Regarding `CC(C)C[C@H](NC(=O)[C@@H](O)[C@H](N)Cc1ccccc1)C(=O)NCc1ccc(C(=O)NO)cc1`, the half-inhibitory concentration (IC50) against Histone deacetylase 3 worked out at 1430 nM; at Histone deacetylase 8 it was 1350 nM; in data set [3], 330 nM; on Aminopeptidase N [1], 550 nM.

As to `COC(=O)c1ccc(CNC(=O)[C@H](CC(C)C)NC(=O)[C@@H](O)[C@H](N)Cc2ccccc2)cc1.Cl`, the Activity worked out at 33.7% in the data set on MV4-11 [4] and 8.31% in the data set on A549 [7]. The IC50 is above 20000 nM in the data set with BXPC-3; above 20000 nM with A549 [5]; above 20000 nM in the data set with K562; above 10000 nM against Histone deacetylase 1; above 20000 nM in the data set with HL-60; 480 nM against Aminopeptidase N [6]. In addition, the IC50 was above 20000 nM in the data set with MV4-11 [2]; 2420 nM against Histone deacetylase 3; above 10000 nM against Histone deacetylase 2; 1350 nM against Aminopeptidase N [1]; above 20000 nM in the data set with JeKo-1. The concentration for half-maximal inhibition (IC50) at 48 h in [8] was above 100000 nM.

In the case of `CCCNNC(=O)c1ccc(CNC(=O)[C@H](CC(C)C)NC(=O)[C@H](O)[C@@H](N)Cc2ccccc2)cc1`, the half-maximal inhibitory concentration (IC50) against Aminopeptidase N [6] is above 20000 nM; against Histone deacetylase 3, 60 nM; against Aminopeptidase N [1] it was above 20000 nM.

As to `CCCNNC(=O)CCCCCNC(=O)[C@H](CC(C)C)NC(=O)[C@@H](O)[C@H](N)Cc1ccccc1`, the results for the IC50 at Histone deacetylase 3 and against Aminopeptidase N [1] were 90 nM and 3030 nM, respectively.

Regarding `CC(C)C[C@H](NC(=O)[C@@H](O)[C@H](N)Cc1ccccc1)C(=O)NCc1ccc(C(=O)Nc2ccccc2N)cc1`, the IC50 against Histone deacetylase 3 was 60 nM; against Aminopeptidase N [1], 1630 nM.

Take `CCCNNC(=O)CCCCCCNC(=O)[C@H](CC(C)C)NC(=O)[C@@H](O)[C@H](N)Cc1ccccc1`: the IC50 against Histone deacetylase 3 came to 50 nM; against Aminopeptidase N [1] it was 9530 nM.

On to `CCCNNC(=O)c1ccc(CNC(=O)[C@H]2CCCN2C(=O)[C@H](CC(C)C)NC(=O)[C@@H](O)[C@H](N)Cc2ccccc2)cc1`, for which the midpoint of inhibition against Aminopeptidase N [1], the IC50, lay at 2690 nM.

For `CCCNNC(=O)c1ccc(CNC(=O)[C@H](CC(C)C)NC(=O)NCc2cccc3ccccc23)cc1`, the values for the IC50 at Histone deacetylase 3 and against Aminopeptidase N [1] were 120 nM and above 20000 nM, respectively.

Consider `CCCNNC(=O)c1ccc(CNC(=O)[C@H](CC(C)C)NC(=O)[C@@H](NC(=O)[C@@H](O)[C@H](N)Cc2ccccc2)[C@@H](C)CC)cc1`, for which the IC50 on Histone deacetylase 3 came to 80 nM; against Aminopeptidase N [1], 400 nM.
